# Data from BindingDB's records for patent US20250042850 (Athos Therapeutics, 2025).
# Experiments:
# Experiment in all cases: Cytochrome P450 Inhibition of VNN1 Inhibitors
# [1] = target: T1, Cytochrome P450 1A2 (Homo sapiens, UniProt P05177)
# T1 sequence (P05177 whole entry): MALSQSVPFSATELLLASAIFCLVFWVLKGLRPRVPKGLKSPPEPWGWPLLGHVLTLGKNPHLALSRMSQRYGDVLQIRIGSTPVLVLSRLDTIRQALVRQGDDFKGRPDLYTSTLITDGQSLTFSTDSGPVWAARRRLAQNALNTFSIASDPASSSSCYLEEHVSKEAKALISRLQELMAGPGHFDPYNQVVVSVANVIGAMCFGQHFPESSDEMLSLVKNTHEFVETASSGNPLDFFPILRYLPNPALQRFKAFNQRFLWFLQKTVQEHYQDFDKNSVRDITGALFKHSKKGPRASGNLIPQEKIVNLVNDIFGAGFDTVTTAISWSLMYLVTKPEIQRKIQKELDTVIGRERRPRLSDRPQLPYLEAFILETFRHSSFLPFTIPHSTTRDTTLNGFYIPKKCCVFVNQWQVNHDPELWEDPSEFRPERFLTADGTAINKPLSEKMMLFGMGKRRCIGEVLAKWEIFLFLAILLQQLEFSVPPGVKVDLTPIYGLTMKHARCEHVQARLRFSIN
# Method: (§1) Table 3 and 4: The cocktail was incubated in human liver microsome with NADPH regenerating system (NRS) in a shaking bath at 37±2° C. The formation of specific metabolites was monitored by LC/MS/MS. Test compound was added to the cocktail-liver microsome mixture at varying concentrations and its effect on cytochrome P450 activity was determined by analyzing the rate of specific metabolite formation. The percent inhibition was calculated and plotted with reference to the concentration, and the IC50 value for inhibition was derived by fitting the data with a standard sigmoidal dose-response equation via MLA “Quest Graph™ ED50 Calculator.” AAT Bioquest, Inc, 17 Sep. 2020, aatbio.com/tools/ed50-calculator. […] The reliability of the inhibition assay was established by confirming the inhibition of known inhibitors on different P450 enzymes.
# [2] = target: Cytochrome P450 2C19 (Homo sapiens, UniProt P33261)
# Method: as §1
# [3] = target: Cytochrome P450 2C9 (Homo sapiens, UniProt P11712)
# Method: as §1
# Cytochrome P450 2C9, sequence (P11712 whole entry): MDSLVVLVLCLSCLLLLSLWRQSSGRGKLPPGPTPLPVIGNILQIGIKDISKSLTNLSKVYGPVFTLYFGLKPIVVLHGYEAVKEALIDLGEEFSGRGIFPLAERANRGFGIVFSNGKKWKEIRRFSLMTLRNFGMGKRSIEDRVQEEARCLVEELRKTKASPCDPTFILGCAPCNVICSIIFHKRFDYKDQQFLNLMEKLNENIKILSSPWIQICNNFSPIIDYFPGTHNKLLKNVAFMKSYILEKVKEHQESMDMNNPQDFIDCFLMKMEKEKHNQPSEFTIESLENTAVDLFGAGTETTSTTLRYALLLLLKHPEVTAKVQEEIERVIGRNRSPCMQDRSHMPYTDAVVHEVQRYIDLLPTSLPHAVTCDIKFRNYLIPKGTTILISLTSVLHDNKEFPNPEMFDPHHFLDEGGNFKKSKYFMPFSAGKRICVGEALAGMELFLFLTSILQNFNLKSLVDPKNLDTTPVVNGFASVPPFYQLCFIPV
# Cytochrome P450 2C19, sequence (P33261 whole entry): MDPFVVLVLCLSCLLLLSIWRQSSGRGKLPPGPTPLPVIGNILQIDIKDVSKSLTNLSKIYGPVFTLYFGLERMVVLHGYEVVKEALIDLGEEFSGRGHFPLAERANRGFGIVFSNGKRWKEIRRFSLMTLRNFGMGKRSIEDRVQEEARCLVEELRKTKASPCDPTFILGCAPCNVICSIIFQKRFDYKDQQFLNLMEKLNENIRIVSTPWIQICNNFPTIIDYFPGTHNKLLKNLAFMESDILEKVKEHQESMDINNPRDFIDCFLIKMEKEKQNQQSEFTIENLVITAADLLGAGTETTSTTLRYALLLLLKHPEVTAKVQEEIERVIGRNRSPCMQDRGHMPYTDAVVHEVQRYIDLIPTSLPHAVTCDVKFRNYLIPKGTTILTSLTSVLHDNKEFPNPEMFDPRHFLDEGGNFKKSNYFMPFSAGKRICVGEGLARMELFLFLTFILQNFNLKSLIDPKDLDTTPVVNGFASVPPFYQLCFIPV
compound,measurement,setting,value
"CC(C)(CO)[C@@H](O)C(=O)n1ccc(C(=O)N2CCCC2)c1 [US20250042850, Compound 10]",IC50,[1],> 100 µM
same,IC50,[2],62.6 µM
same,IC50,[3],> 100 µM
